Measurements from PubChem BioAssay AID1963870 (Molecular Pharmacology Branch, DTP, NCI, 2024).

System: 292921-168-R-J2-PDC KRAS tumor spheroid viability
Experiment: Anticancer human tumor 292921-168-R-J2-PDC patient-derived pancreatic carcinoma cell line growth inhibition [KRAS2]
Conditions: spheroids with HUVEC and MSC; for viability, T/C: stronger effect = lower value
In short: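 KRAS-mutant tumor cells were grown as spheroids with HUVEC endothelial cells and human MSCs as stroma. Targeted agents were tested alone and with KRAS pathway inhibitors. Doses started at or near clinical Cmax, or 10 microM, descending half-log.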

[1] = curve of first compound, second compound 0.1 µM
[2] = curve of first compound, second compound 0.316 µM
[3] = curve of first compound, second compound 1 µM
[4] = curve of first compound, second compound 3.16 µM
[5] = curve of first compound, second compound 10 µM
[6] = second compound 0.1 µM, first compound 0.0316 µM
[7] = second compound 0.1 µM, first compound 0.1 µM
[8] = second compound 0.316 µM, first compound 0.0316 µM
[9] = second compound 0.316 µM, first compound 0.1 µM
[10] = second compound 1 µM, first compound 0.0316 µM
[11] = second compound 1 µM, first compound 0.1 µM
[12] = second compound 3.16 µM, first compound 0.0316 µM
[13] = second compound 3.16 µM, first compound 0.1 µM
[14] = second compound 10 µM, first compound 0.0316 µM
[15] = second compound 10 µM, first compound 0.1 µM
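Further: drug exposure lasted seven days after spheroids formed for three days.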
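Wherever viability, T/C is given: percent of DMSO vehicle control viability which is 100%.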

CC(C)n1nc(-c2ccc3oc(N)nc3c2)c2c(N)ncnc21 + CNCc1ccccc1-c1csc(C(C)Nc2nc(C)nc3cc(OC)c(OC)cc23)c1
IC50 [1]: 3.06 nM
IC50 [2]: 2.08 nM
IC50 [3]: 0.991 nM
IC50 [4]: < 0.316 nM
IC50 [5]: < 0.316 nM
viability, T/C (second compound 0.1 µM, first compound 0.000316 µM): 76.3%
viability, T/C (second compound 0.1 µM, first compound 0.001 µM): 63.9%
viability, T/C (second compound 0.1 µM, first compound 0.00316 µM): 50.2%
viability, T/C (second compound 0.1 µM, first compound 0.01 µM): 36.2%
viability, T/C [6]: 25.3%
viability, T/C [7]: 23.7%
viability, T/C (second compound 0.316 µM, first compound 0.000316 µM): 79%
viability, T/C (second compound 0.316 µM, first compound 0.001 µM): 60.7%
viability, T/C (second compound 0.316 µM, first compound 0.00316 µM): 43.3%
viability, T/C (second compound 0.316 µM, first compound 0.01 µM): 33.5%
viability, T/C [8]: 24.5%
viability, T/C [9]: 21.5%
viability, T/C (second compound 1 µM, first compound 0.000316 µM): 74.4%
viability, T/C (second compound 1 µM, first compound 0.001 µM): 50%
viability, T/C (second compound 1 µM, first compound 0.00316 µM): 33.6%
viability, T/C (second compound 1 µM, first compound 0.01 µM): 25.7%
viability, T/C [10]: 22.7%
viability, T/C [11]: 19%
viability, T/C (second compound 3.16 µM, first compound 0.000316 µM): 1.37%
viability, T/C (second compound 3.16 µM, first compound 0.001 µM): 0.62%
viability, T/C (second compound 3.16 µM, first compound 0.00316 µM): 0.91%
viability, T/C (second compound 3.16 µM, first compound 0.01 µM): 0.17%
viability, T/C [12]: 0.67%
viability, T/C [13]: 0.43%
viability, T/C (second compound 10 µM, first compound 0.000316 µM): 0.08%
viability, T/C (second compound 10 µM, first compound 0.001 µM): 0.56%
viability, T/C (second compound 10 µM, first compound 0.00316 µM): 0.08%
viability, T/C (second compound 10 µM, first compound 0.01 µM): 0.09%
viability, T/C [14]: 0.85%
viability, T/C [15]: 0.31%

O=C(c1cc(Cc2n[nH]c(=O)c3ccccc23)ccc1F)N1CCN(C(=O)C2CC2)CC1
viability, T/C (compound 0.0316 µM): 96.3% [middle of 5 runs]
viability, T/C (compound 10 µM): 46% [middle of 5 runs]
IC50 (curve of compound): 8.55 µM [middle of 5 runs]

COC(=O)c1ccc2c(C(=Nc3ccc(N(C)C(=O)CN4CCN(C)CC4)cc3)c3ccccc3)c(O)[nH]c2c1 + CC1OCC2(CCN(c3cnc(Sc4ccnc(N)c4Cl)c(N)n3)CC2)C1N
IC50 [1]: 217 nM
IC50 [2]: 241 nM
IC50 [3]: < 31.6 nM
IC50 [4]: 105 nM
IC50 [5]: 105 nM
viability, T/C [6]: 71.4%
viability, T/C [7]: 57.7%
viability, T/C (second compound 0.1 µM, first compound 0.316 µM): 48.3%
viability, T/C (second compound 0.1 µM, first compound 1 µM): 24.8%
viability, T/C (second compound 0.1 µM, first compound 3.16 µM): 12.3%
viability, T/C (second compound 0.1 µM, first compound 10 µM): 0.41%
viability, T/C [8]: 76.8%
viability, T/C [9]: 63.1%
viability, T/C (second compound 0.316 µM, first compound 0.316 µM): 46.1%
viability, T/C (second compound 0.316 µM, first compound 1 µM): 26.6%
viability, T/C (second compound 0.316 µM, first compound 3.16 µM): 9.27%
viability, T/C (second compound 0.316 µM, first compound 10 µM): 0.34%
viability, T/C [10]: 48%
viability, T/C [11]: 44.3%
viability, T/C (second compound 1 µM, first compound 0.316 µM): 37.6%
viability, T/C (second compound 1 µM, first compound 1 µM): 19.3%
viability, T/C (second compound 1 µM, first compound 3.16 µM): 10%
viability, T/C (second compound 1 µM, first compound 10 µM): 0.37%
viability, T/C [12]: 60%
viability, T/C [13]: 51.8%
viability, T/C (second compound 3.16 µM, first compound 0.316 µM): 34.5%
viability, T/C (second compound 3.16 µM, first compound 1 µM): 17.9%
viability, T/C (second compound 3.16 µM, first compound 3.16 µM): 9.11%
viability, T/C (second compound 3.16 µM, first compound 10 µM): 0.37%
viability, T/C [14]: 58.2%
viability, T/C [15]: 50.3%
viability, T/C (second compound 10 µM, first compound 0.316 µM): 34.6%
viability, T/C (second compound 10 µM, first compound 1 µM): 17.4%
viability, T/C (second compound 10 µM, first compound 3.16 µM): 1.12%
viability, T/C (second compound 10 µM, first compound 10 µM): 0.57%
